From patent US10907219B2, “Compositions and methods for controlling cellular function” (STC.UNM, priority 2014, dated 2021)
Entries after “also recorded” stand apart in the source; their conditions may differ.

Tests used:
[1] = system: HEK 293T inducible EGFP reporter cell line (VP-PYL and GAL4DBD-ABI); assay: Light-induced EGFP expression; type: cell-based
Description: To confirm that the photo-regenerated ABA is biologically functional, we determined whether it can be employed to induce PYL-ABI dimerization in an ABA-inducible transcriptional activation system using an established HEK 293T inducible EGFP reporter cell line. The cell line was created with both the ABA-responsive split transcriptional activator DNA fragment (VP-PYL and GAL4DBD-ABI linked by IRES; Liang et al., 2011, Sci. Signal. 4, rs2) and an inducible EGFP DNA fragment (with 5×UAS and the IL-2 minimal promoter) inserted into the genome (FIG. 21A). EGFP expression was activated through the recruitment of VP16AD to the EGFP gene in the presence of ABA. 24 hours after plating the cells, 10 μM of ABA, pre-irradiated ABA-DMNB products, or non-irradiated ABA-DMNB were separately added to the cells and incubated for an additional eight hours. EGFP expression was then determined using a fluorescence microscopy.
Cell culture and transfection: CHO cells and HEK 293T EGFP reporter cells (provided by Dr. Gerald R. Crabtree) were cultured in Dulbecco's modified Eagle's medium (DMEM; GIBCO, Life Technologies, Carlsbad, Calif.) with 10% FBS (Atlanta Biologicals, Inc., Norcross, Ga.), 1×GlutaMAX (GIBCO, Life Technologies, Carlsbad, Calif.), and 1× penicillin/streptomycin (Pen/Strep; GIBCO, Life Technologies, Carlsbad, Calif.). 15,000-50,000 ells were plated in a 24-well or 8-well plate for 24 hours before transfection. DNA constructs (0.1 μg-0.5 μg) were added to 50× (v/w) Opti-MEM (GIBCO, Life Technologies, Carlsbad, Calif.), and then 3× (v/w) PEI (Polysciences, Inc., Warrington, Pa.) was mixed with the DNA. The mixture was incubated for 20 minutes at room temperature before adding it to cell cultures. The cells were grown for one day after transfection before experiments were performed.
Photo-irradiation: Irradiation at 365 nm was performed with an Axio Observer (Carl Zeiss AG, Oberkochen, Germany) microscope with an HBO103 W/2 mercury arc lamp (Carl Zeiss AG, Oberkochen, Germany). Irradiation was performed by using a DAPI filter (Carl Zeiss AG, Oberkochen, Germany), set with peak excitation at 365 nm (power density: 23 mW cm^2) and a spectral width of 50 nm. No objective lens was used for whole-well irradiation, which created an area of illumination that nearly completely covered one well of a 24-well plate. Light was transmitted through the bottom of the well of polystyrene plate. Irradiation at 405 nm was performed by using an adjustable focus violet purple laser pointer (LazerPoint SKU 0733579), with an excitation wavelength of 405 nm and 1000 mW intensity positioned 8 cm above the bottom of either a 96-well or 24-well plate and irradiated through the polystyrene lid. […]

[2] = system: EGFP-PYL and NES-ABI in CHO cells; assay: Light-induced EGFP-PYL nuclear export (fixed cells); type: cell-based; conditions: for subcellular location of EGFP-PYL: CHO cells; for reversibility of EGFP nuclear exportation: washed with fresh media
Experimental: The ability to use light to control protein translocation through ABA-DMNB uncaging was evaluated next. Plasmids expressing EGFP-tagged PYL and nuclear export sequence (NES) peptide-linked ABI (FIG. 22A) were transfected into CHO cells. The transfected cells were then either treated or not treated with ABA, ABA-DMNB, or ABA-DMNB and irradiated for 60 seconds. Fluorescence microscopy analysis was used to determine subcellular locations of EGFP fusion proteins. […] Furthermore, the observed nuclear export of EGFP fusion protein can be readily reversed by washing away the uncaged ABA using fresh media. Thus, protein translocation can be induced by light through photo-uncaged ABA and can be readily reversed.
Slide preparation: Cells were grown on glass coverslips in 24-well plates. The coverslips were washed with phosphate-buffered saline (PBS) and fixed with 4% paraformaldehyde (PFA, 300 μL, prepared in PBS) at room temperature for 20 min. The cells were then washed twice with PBS and incubated with 1×DAPI in the dark at the room temperature for 5 min. After a final wash with PBS, the coverslips were mounted on a glass slide with VECTASHIELD (Vector Laboratories, Inc., Burlingame, Calif.) mounting media and allowed to stand for two hours in the dark before imaging.
Fluorescence microscopy imaging: Slides were imaged with an Axio Observer (Carl Zeiss AG, Oberkochen, Germany) microscope or with am LSM 510 Meta confocal microscope (Carl Zeiss AG, Oberkochen, Germany) mounted on an AxioObserver inverted microscope with a 63× oil objective. Images were taken with DAPI and GFP channels.
Statistical analysis of cell population: Cell were categorized as displaying nuclear export of EGFP when the fluorescent intensity of the nucleus was less than 60% of the intensity of the cytoplasm. […] Cells were counted from three separate experiments, with N>50 for each experiment.

[3] = Chemical stability of caged ABA in HEPES buffer/DMSO in the dark (HPLC); type: physicochemical; conditions: 70% HEPES buffer/30% DMSO, 37° C., 24 h
Experimental: FIG. 26. Chemical stability of ABA-DMNB. ABA-DMNB was incubated in 70% HEPES buffer/30% DMSO at 37° C. for 24 h in the dark. The samples were analyzed by HPLC.
FIG. 32. Chemical stability of ABA-DEACM. ABA-DEACM was incubated in 70% HEPES buffer/30% DMSO at 37° C. for 24 h in the dark. The samples were analyzed by HPLC and absorbance was monitored at 250 nm.
HPLC analysis: Reversed-phase HPLC was performed on an ACCLAIM 120 (4.6×100 mm) C18 column (Thermo Fisher Scientific, Waltham, Mass.) with an ULTIMATE 3000 pump system, including a Variable Wavelength Detector 3100, Degasser 1210, and Autosampler SPS 3000 (Thermo Fisher Scientific, Waltham, Mass.). A mixture of water and acetonitrile containing 0.1% TFA was used as the eluent. Absorbance at 250 nm was used to monitor the elution of the molecules. The method used an increase in acetonitrile from 5% to 95% over 15 minutes to elute the molecules at a flow rate of 0.7 mL/min. The peaks for the molecules were integrated by using Chromeleon software (Thermo Fisher Scientific, Waltham, Mass.). The molar absorptivity of both free and caged ABA at 250 nm were measured, which was used to calculate the concentration of each species from the intensity of absorbance at 250 nm. […]

[4] = 10 μM, not irradiated, eight hours

SMILES	eGFP expression [1, 4]	subcellular location of EGFP-PYL ([2]; not irradiated)	reversibility of EGFP nuclear exportation ([2]; not irradiated)	EGFP-PYL nuclear export ([2]; 10 μM, 405 nm light irradiation, fixed CHO cells)	chemical stability in biological buffer in the dark [3]	eGFP expression ([1]; 10 μM, pre-irradiated (pre-photocleaved) products, eight hours)	eGFP expression ([1]; irradiated in cell culture, 365 nm)	subcellular location of EGFP-PYL ([2]; 365 nm UV irradiation 60 seconds)	reversibility of EGFP nuclear exportation ([2]; after UV irradiation)	subcellular location of EGFP-PYL ([2]; not irradiated, listed as ABADMNB)
CC1=CC(=O)CC(C)(C)C1(O)/C=C/C(C)=C\C(=O)O (stereo not shown) [ABA, abscisic acid, reference compound]	induced EGFP production	exported out of the nucleus; also recorded: markedly decreased intensities of EGFP in the nuclei within 15 minutes	reversed following three washes (within 30 minutes)							
CCN(CC)c1ccc2c(COC(=O)/C=C(C)\C=C\[C@@]3(O)C(C)=CC(=O)CC3(C)C)cc(=O)oc2c1 [ABA-DEACM]				ability to induce EGFP-PYL nuclear export	no chemical decomposition; also recorded: stable chemically					
COc1cc(COC(=O)/C=C(C)\C=C\[C@@]2(O)C(C)=CC(=O)CC2(C)C)c([N+](=O)[O-])cc1OC [ABA-DMNB]	did not induce EGFP expression	EGFP distribution throughout the whole cells			no chemical decomposition; also recorded: stable at 37 °C in biological buffer in the dark for 24 hours	induced EGFP production	showed EGFP expression	exported out of the nucleus; also recorded: markedly decreased intensities of EGFP in the nuclei within 15 minutes	reversed following three washes (within 30 minutes)	distributed throughout the cell
